Earlier results on one substance are cited in patent publication US4146613A, “Oral anti-diabetic drug composition” (THERA Gesellschaft fur Patentverwertung mbH, priority 1976, dated 1979).

For this data set, the system named is blood sugar.

kallikrein: the “persistence of blood sugar lowering effect” value (after administering for several days, for example after three days) was “the effect would diminish or disappear”. In addition, the blood sugar lowering result (also if applied orally, Frey et al 1932) was “lower slightly the blood sugar”.
